# Values joined by “and” are separate entries in the source; they are usually repeats but may differ in a detail not shown here. Identical values can stand only once.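 Each compound was tested at five concentrations against cells in 96-well plates for 48 hours. GI50: concentration for 50% inhibition of growth. Definition used: TGI = concentration required for complete inhibition of growth.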
# Columns and labels:
# Experiment in all cases: growth of human tumour cells (NCI), 48 h
# BT-549 breast = system: BT-549 breast
# DU-145 prostate = system: DU-145 prostate
# HS 578T breast = system: HS 578T breast
# K-562 leukemia = system: K-562 leukemia
# LOX IMVI melanoma = system: LOX IMVI melanoma
# MCF7 breast = system: MCF7 breast
# MDA-MB-231 breast = system: MDA-MB-231 breast
# MDA-N = system: MDA-N
# MOLT-4 leukemia = system: MOLT-4 leukemia
# NCI-H226 lung = system: NCI-H226 lung
# OVCAR-3 ovarian = system: OVCAR-3 ovarian
# OVCAR-4 ovarian = system: OVCAR-4 ovarian
# PC-3 prostate = system: PC-3 prostate
# SW-620 colon = system: SW-620 colon
SMILES,TGI (BT-549 breast) [nM],TGI (DU-145 prostate) [nM],TGI (HS 578T breast) [nM],TGI (K-562 leukemia),TGI (LOX IMVI melanoma) [nM],TGI (MCF7 breast) [nM],TGI (MDA-MB-231 breast) [nM],TGI (MDA-N) [nM],TGI (MOLT-4 leukemia) [nM],TGI (NCI-H226 lung),TGI (OVCAR-3 ovarian) [nM],TGI (OVCAR-4 ovarian) [nM],TGI (PC-3 prostate) [nM],TGI (SW-620 colon),GI50 (K-562 leukemia),GI50 (MOLT-4 leukemia) [nM],GI50 (OVCAR-3 ovarian) [nM],GI50 (OVCAR-4 ovarian) [nM],GI50 (SW-620 colon)
COc1cccc(C2c3cc4c(cc3OC(N3CCOCC3)C2C)OCO4)c1 (stereo not given),22400,> 100000,60100,> 100000 nM,18100,46400,> 100000,10700,17600,43400 nM,38600,61000,44400,16700 nM,,,,,
O=C1/C(=C/c2ccc(Cl)c(Cl)c2)CN(C(=O)CCN2CCOCC2)C/C1=C\c1ccc(Cl)c(Cl)c1,48.7,148,> 10000,585 nM and 2990 nM,1150,159,5.91,44.1,,4550 nM and 4150 nM,,,15.7,3320 nM and 563 nM and 746 nM,259 nM and 315 nM,196,1080,1560,1390 nM and 229 nM and 249 nM

# — PubChem BioAssay (NCI)
